Test results published in US12399427B2, “Photobase generator, compound, photoreactive composition and reaction product” (Tokyo University of Science Foundation, priority 2019, dated 2025).

Legend:
[1] = Behavior of compound in methanol under light irradiation with wavelength of 313 nm or 365 nm (absorbance; Test Examples 1, 2, 8, 9); format: physicochemical; settings: 2.0×10^−5 mol/L; for molar absorption coefficient ε313: 313 nm; for molar absorption coefficient ε365: 365 nm
Procedure: The compound (1)-1 obtained above was dissolved in methanol so as to have a concentration of 2.0×10^−5 mol/L. Then, using a mercury xenon lamp, the illuminance was set to 5 mW/cm^2, the exposure doses were set to 0, 10, 30, 60 and 100 mJ/cm^2, and the obtained methanol solution was irradiated with light having a wavelength of 313 nm. Then, the absorbance of the compound (1)-1 was measured.
The compound (1)-1 obtained above was dissolved in methanol so as to have a concentration of 2.0×10^−5 mol/L. Then, using an LED lamp, the illuminance was set to 10 mW/cm^2, the exposure doses were set to 0, 10, 30, 60 and 100 mJ/cm^2, and the obtained methanol solution was irradiated with light having a wavelength of 365 nm. Then, the absorbance of the compound (1)-1 was measured.
The compound (1)-2 obtained above was dissolved in methanol so as to have a concentration of 2.0×10^−5 mol/L. Then, using a mercury xenon lamp, the illuminance was set to 10 mW/cm^2, the exposure doses were set to 0, 30, 100, 200 and 300 mJ/cm^2, and the obtained methanol solution was irradiated with light having a wavelength of 313 nm. Then, the absorbance of the compound (1)-2 was measured.
The compound (1)-2 obtained above was dissolved in methanol so as to have a concentration of 2.0×10^−5 mol/L. Then, using an LED lamp, the illuminance was set to 10 mW/cm^2, the exposure doses were set to 0, 30, 100, 200 and 300 mJ/cm^2, and the obtained methanol solution was irradiated with light having a wavelength of 365 nm. Then, the absorbance of the compound (1)-2 was measured.

[2] = Solubility of the compound in solvents (amount of solvent required to dissolve 10 mg); format: physicochemical
Procedure: Moreover, the solubility of the compound (1)-1 in the solvent was confirmed. Specifically, the amount of the solvent required to dissolve 10 mg of the compound (1)-1 was confirmed for each solvent. The amount of the solvent required was from 1 mL to 5 mL when tetrahydrofuran or acetone was used, and 1 mL or less when cyclopentanone, methanol or dimethyl sulfoxide was used.

[3] = Production of reaction product using photoreactive composition including compound (2) (Test Example 12); settings: 365 nm, up to 10000 mJ/cm^2, post-bake 160° C. 20 minutes
Procedure: Polyglycidylmethyl acrylate (PGMA, 0.1 g, molecular weight; 22000) showing the structure above, the compound (2) (0.005 g) and tetrahydrofuran (1 g) were blended and stirred at 25° C. for 1 minute to obtain a photoreactive composition.
The photoreactive compositions obtained above was applied onto a silicon wafer by a spin coating method under the conditions of 1500 rpm and 30 seconds. Next, after heating (pre-baking) this coating film (photoreactive composition layer) at 100° C. for 1 minutes, using a Hg—Xe lamp, the coating film was irradiated with light having a wavelength of 365 nm with an illuminance of 50 mW/cm^2 and the exposure doses of 0 mJ/cm^2 to 10000 mJ/cm^2. After light irradiation, the coating film was heated (post-baked) 160° C. for 20 minutes. The coating film after heated was developed with tetrahydrofuran for 30 seconds, and then the ratio of the thickness of the coating film after development to the coating film before light irradiation was measured.

## O=C(/C=C/c1ccccc1O)Nc1ccncc1 [compound (1)-1]
[1]
  molar absorption coefficient ε313: 23000 L/mol/cm
  molar absorption coefficient ε365: 6900 L/mol/cm
[2]; cyclopentanone
  amount of the solvent required to dissolve 10 mg: ≤ 1 mL
[2]; dimethyl sulfoxide
  amount of the solvent required to dissolve 10 mg: ≤ 1 mL
[2]; methanol
  amount of the solvent required to dissolve 10 mg: ≤ 1 mL

## CN(C(=O)/C=C/c1ccccc1O)c1ccncc1 [compound (1)-2]
[1]
  molar absorption coefficient ε313: 13000 L/mol/cm
  molar absorption coefficient ε365: 3200 L/mol/cm

## O=C(/C=C/c1ccccc1O)NC1CCCCC1 [compound (2)]
[3]
  production of an insolubilized reaction product: could not be produced
